Four molecules from US5770617A, “Terbenzimidazoles useful as antifungal agents” (Rutgers, The State University of New Jersey, priority 1997, dated 1998) can be followed below.

One assay deals with T1, human topoisomerase I (Homo sapiens, UniProt P11387).
T1 construct: made in house; host or cells: Escherichia coli BL21 (DE3) harboring PET1B
T1 sequence (P11387 1-765): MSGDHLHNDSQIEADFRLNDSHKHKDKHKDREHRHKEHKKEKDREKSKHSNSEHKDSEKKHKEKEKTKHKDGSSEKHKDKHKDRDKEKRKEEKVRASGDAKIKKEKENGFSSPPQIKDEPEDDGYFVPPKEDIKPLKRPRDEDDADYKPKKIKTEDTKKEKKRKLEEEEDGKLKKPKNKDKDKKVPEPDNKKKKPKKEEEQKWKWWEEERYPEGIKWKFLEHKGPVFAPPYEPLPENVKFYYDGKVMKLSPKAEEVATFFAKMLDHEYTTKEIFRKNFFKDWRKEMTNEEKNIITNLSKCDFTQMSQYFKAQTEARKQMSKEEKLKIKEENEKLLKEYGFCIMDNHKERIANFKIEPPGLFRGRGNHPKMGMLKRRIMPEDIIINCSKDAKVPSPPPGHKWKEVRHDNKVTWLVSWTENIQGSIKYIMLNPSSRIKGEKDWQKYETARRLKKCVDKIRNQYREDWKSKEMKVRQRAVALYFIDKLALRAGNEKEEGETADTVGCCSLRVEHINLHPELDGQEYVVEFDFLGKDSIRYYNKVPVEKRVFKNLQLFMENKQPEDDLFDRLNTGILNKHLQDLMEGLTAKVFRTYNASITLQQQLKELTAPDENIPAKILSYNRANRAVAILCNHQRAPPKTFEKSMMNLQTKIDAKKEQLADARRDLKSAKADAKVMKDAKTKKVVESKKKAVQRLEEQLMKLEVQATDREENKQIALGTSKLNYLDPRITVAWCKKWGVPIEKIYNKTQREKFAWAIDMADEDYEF
The assay is described as follows: Topoisomerase I cleavage assay, human enzyme. To be noted: recombinant human topoisomerase I. The format is biochemical. On the procedure:
Plasmid YEpG was also purified by the alkali lysis method followed by phenol deproteination and CsCl/ethidium isopycnic centrifugation as described by T. Maniatis et al., Molecular Cloning, A Laboratory Manual, Cold Spring Harbor Labs, N.Y. (1982) at pages 149-185. The end-labeling of the plasmid was accomplished as previously described by L. F. Liu et al., J. Biol. Chem., 258, 15365 (1983). The cleavage assays were performed as previously reported by A. Y. Chen et al., Cancer Res., 53, 1332 (1993). Human topoisomerase I was isolated as a recombinant fusion protein using a T7 expression system.
Subsequent steps in purification were the same as described previously for purification of recombinant human DNA topoisomerase I (B. Gatto et al., Cancer Res., 56, 2795 (1996)). Briefly, the supernatant was chromatographed directly onto a hydroxyapatite Bio-gel HTP (BioRad Laboratories, Richmond, Calif.) column. Fractions containing relaxation activity were pooled, diluted and then loaded onto a BioRex70 column (BioRad Laboratories, Richmond, Calif.). The column was developed with a linear gradient from 0.2 to 1M KCl. The peak fractions were pooled and dialyzed overnight at 4° C. against 30 mM potassium phosphate, 50% glycerol (v/v), 0.5 mM EDTA, and 1 mM DTT. Recombinant human topoisomerase I was purified from Escherichia coli BL21 (DE3) harboring PET1B as described previously (Gatto et al., Cancer Res., 56, 2795 (1996)).
DNA topoisomerase I cleavage assays were performed as described by Y.-H. Hsiang et al., J. Biol. Chem., 260, 14873 (1985). YEpG DNA was linearized with BamHI and then 3 '-end-labeled with Klenow polymerase and α[-^32 P]dCTP. Following phenol extraction and ethanol precipitation, the labeled DNA was resuspended in 10 mM Tris, pH 8.0, and 1 mM EDTA. The DNA cleavage assay was done in a reaction mixture (20 μl) containing 40 mM Tris-HCl, pH 7.8, 100 mM KCl, 10 mM MgCl2, 0.5 mM dithiothreitol, 0.5 mM EDTA, 30 μg/ml bovine serum albumin, 20 ng of labeled YEpG DNA, and […] of Aspergillus or human topoisomerase I diluted to various extents. Following incubation at 23° C. for 15 minutes, the reactions were terminated by the addition of SDS (final concentration 1%) and proteinase K (final concentration 200 μg/ml). Proteinase K treatment continued at 37° C. for another 1 hour. The terminated reactions were either alkali-denatured and then loaded (alkaline loading) or loaded directedly in neutral loading buffer (neutral loading) onto a 1% agarose gel in neutral TPE electrophoresis solution. Gel drying and autoradiography were performed as described by Hsiang et al., cited above.

For assay [1], the system named is CPT-K5 (camptothecin-resistant variant of RPMI 8402). The assay is described as follows: MTT cytotoxicity assay, CPT-K5. The format is cell-based, human. On the procedure:
The cytotoxicity was determined using the as MTT-microtiter plate tetrazolinium cytotoxicity assay (MTA) following the procedures of F. Denizot et al., J. Immunol. Methods, 89, 271 (1986); J. Carmichael et al., Cancer Res, 47, 936 (1987) and T. J. Mosmann et al., Immunol. Methods, 65, 55 (1983). The human lymphoblast RPMI 8402 and its camptothecin-resistant variant cell line, CPT-K5 were provided by Dr. Toshiwo Andoh (Aichi Cancer Center Research Institute, Nagoya, Japan). See, for example, T. Andoh et al., Adv. Pharmacol., 29B, 93 (1994). The cytotoxicity assay was performed using 96-well microtiter plates. Cells were grown in suspension at 37 ° C. in 5% CO2 and maintained by regular passage in RPMI medium supplemented with 10% heat inactivated fetal bovine serum, L-glutamine (2 mM), penicillin (100 U/ml), and streptomycin (0.1 mg/ml). For determination of IC50, cells were exposed continuously with varying concentrations of drug concentrations and MTT assays were performed at the end of the fourth day.
On the technique in general: Formazan colour is commonly taken as a measure of viable cells.

As for `N#Cc1ccc2[nH]c(-c3ccc4[nH]c(-c5ccc6[nH]cnc6c5)nc4c3)nc2c1` [Compound 11, 5-Cyano-2-[2'-(benzimidazol-5"-yl)benzimidazol-5'-yl]benzimidazole], at human topoisomerase I, the “sensitivity of human topoisomerase I to poisoning / DNA cleavage with human topoisomerase I, in words” value was “sensitive”. Take `c1ccc(-c2ccc3[nH]c(-c4ccc5[nH]c(-c6ccc7[nH]cnc7c6)nc5c4)nc3c2)cc1` [Compound 13, 5-Phenyl-2-[2'(benzimidazol-5"-yl)benzimidazol-5'-yl]benzimidazole]: the “effect against camptothecin-resistant CPT-K5 cells, in words” value in assay [1] was “effective”. The “sensitivity of human topoisomerase I to poisoning / DNA cleavage with human topoisomerase I, in words” value at human topoisomerase I is reported as “sensitive”. As to `CCOc1ccc(-c2nc3cc(-c4nc5cc(N6CCN(C)CC6)ccc5[nH]4)ccc3[nH]2)cc1` [Hoechst 33342, 2'-(4-ethoxyphenyl)-5-(4-methyl-1-piperazinyl)-2,5'-bi-1H-benzimidazole], in assay [1], the “effect against camptothecin-resistant CPT-K5 cells, in words” value is recorded as “effective”. The “sensitivity of human topoisomerase I to poisoning / DNA cleavage with human topoisomerase I, in words” value at human topoisomerase I is recorded as “sensitive”. On to `CC[C@@]1(O)C(=O)OCc2c1cc1n(c2=O)Cc2cc3ccccc3nc2-1` [camptothecin], for which the “sensitivity of human topoisomerase I to poisoning / DNA cleavage with human topoisomerase I, in words” value on human topoisomerase I was “sensitive”.
